ChEMBL document CHEMBL1201862, “PubChem BioAssay data set” (2004)
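Each compound was tested at five concentrations against cells in 96-well plates for 48 hours. GI50 = concentration required for 50% inhibition of growth.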 Calls of active or inactive are those of the source. Rule as the data show it: active = GI50 up to about 1.1 µM and inactive = higher.

Assays:
Test in all cases: NCI tumour cell line growth inhibition, 48 h
MDA-MB-435 = tested on: MDA-MB-435
OVCAR-8 = tested on: OVCAR-8
U-251 = tested on: U-251
ACHN = tested on: ACHN
IGROV-1 = tested on: IGROV-1
NCI-H522 = tested on: NCI-H522
T47D = tested on: T47D
SF-268 = tested on: SF-268
MDA-MB-231 = tested on: MDA-MB-231
RPMI-8226 = tested on: RPMI-8226
SNB-75 = tested on: SNB-75
NCI-H460 = tested on: NCI-H460
A549 = tested on: A549
SK-MEL-5 = tested on: SK-MEL-5
SR = tested on: SR
NCI/ADR-RES = tested on: NCI/ADR-RES
UACC-257 = tested on: UACC-257
EKVX = tested on: EKVX
SNB-19 = tested on: SNB-19
PC-3 = tested on: PC-3
SN12C = tested on: SN12C
SW-620 = tested on: SW-620
Hs-578T = tested on: Hs-578T
RXF 393 = tested on: RXF 393
OVCAR-3 = tested on: OVCAR-3
NCI-H226 = tested on: NCI-H226
K562 = tested on: K562
MDA-N = tested on: MDA-N
MOLT-4 = tested on: MOLT-4
COLO 205 = tested on: COLO 205
CCRF-CEM = tested on: CCRF-CEM
SF-295 = tested on: SF-295
MCF7 = tested on: MCF7
HOP-92 = tested on: HOP-92
KM12 = tested on: KM12
SK-MEL-28 = tested on: SK-MEL-28
M14 = tested on: M14
DU-145 = tested on: DU-145
HCC 2998 = tested on: HCC 2998
786-0 = tested on: 786-0
HCT-116 = tested on: HCT-116
BT-549 = tested on: BT-549
NCI-H23 = tested on: NCI-H23
OVCAR-4 = tested on: OVCAR-4
UACC-62 = tested on: UACC-62
TK-10 = tested on: TK-10
OVCAR-5 = tested on: OVCAR-5
SF-539 = tested on: SF-539
SK-OV-3 = tested on: SK-OV-3
HL-60 = tested on: HL-60
HOP-62 = tested on: HOP-62
Malme-3M = tested on: Malme-3M
HCT-15 = tested on: HCT-15
HT-29 = tested on: HT-29
UO-31 = tested on: UO-31
CAKI-1 = tested on: CAKI-1
SK-MEL-2 = tested on: SK-MEL-2
LOX IMVI = tested on: LOX IMVI

SMILES: CCNC1=C(NC(=O)c2ccc(OC)cc2)C(=O)c2ccccc2C1=O
- GI50 (MDA-MB-435): 16.8 µM (inactive)
- GI50 (OVCAR-8): 24.6 µM (inactive)
- GI50 (U-251): > 100 µM (inactive)
- GI50 (ACHN): 88.3 µM (inactive)
- GI50 (IGROV-1): 72.1 µM (inactive)
- GI50 (NCI-H522): 30.7 µM (inactive)
- GI50 (T47D): 66.1 µM (inactive)
- GI50 (SF-268): > 100 µM (inactive)
- GI50 (MDA-MB-231): 92.9 µM (inactive)
- GI50 (RPMI-8226): > 100 µM (inactive)
- GI50 (SNB-75): > 100 µM (inactive)
- GI50 (NCI-H460): 56.5 µM (inactive)
- GI50 (A549): 70.3 µM (inactive)
- GI50 (SK-MEL-5): 34.7 µM (inactive)
- GI50 (SR): 56.5 µM (inactive)
- GI50 (NCI/ADR-RES): 29 µM (inactive)
- GI50 (UACC-257): 19.4 µM (inactive)
- GI50 (EKVX): > 100 µM (inactive)
- GI50 (SNB-19): > 100 µM (inactive)
- GI50 (PC-3): 32.8 µM (inactive)
- GI50 (SN12C): 43.6 µM (inactive)
- GI50 (SW-620): 44 µM (inactive)
- GI50 (Hs-578T): > 100 µM (inactive)
- GI50 (RXF 393): 28.5 µM (inactive)
- GI50 (OVCAR-3): 24 µM (inactive)
- GI50 (NCI-H226): > 100 µM (inactive)
- GI50 (K562): > 100 µM (inactive)
- GI50 (MDA-N): 37.2 µM (inactive)
- GI50 (MOLT-4): 36.1 µM (inactive)
- GI50 (COLO 205): 37 µM (inactive)
- GI50 (CCRF-CEM): 48.3 µM (inactive)
- GI50 (SF-295): > 100 µM (inactive)
- GI50 (MCF7): 51.8 µM (inactive)
- GI50 (HOP-92): > 100 µM (inactive)
- GI50 (KM12): 49.9 µM (inactive)
- GI50 (SK-MEL-28): > 100 µM (inactive)
- GI50 (M14): 21.6 µM (inactive)
- GI50 (DU-145): > 100 µM (inactive)
- GI50 (HCC 2998): 37.5 µM (inactive)
- GI50 (786-0): > 100 µM (inactive)
- GI50 (HCT-116): 36.3 µM (inactive)
- GI50 (BT-549): 63.1 µM (inactive)
- GI50 (NCI-H23): 43.6 µM (inactive)
- GI50 (OVCAR-4): 34.7 µM (inactive)
- GI50 (UACC-62): 39.4 µM (inactive)
- GI50 (TK-10): > 100 µM (inactive)
- GI50 (OVCAR-5): > 100 µM (inactive)
- GI50 (SF-539): 56.8 µM (inactive)
- GI50 (SK-OV-3): > 100 µM (inactive)
- GI50 (HL-60): 51.6 µM (inactive)
- GI50 (HOP-62): > 100 µM (inactive)
- GI50 (Malme-3M): 21.3 µM (inactive)
- GI50 (HCT-15): 48.4 µM
- GI50 (HT-29): 23.4 µM (inactive)

SMILES: CS(C)(=O)=N/C=C\C(=O)C(Cl)(Cl)Cl
- GI50 (MDA-MB-435): > 100 µM (inactive)
- GI50 (OVCAR-8): > 100 µM (inactive)
- GI50 (U-251): 79.1 µM (inactive)
- GI50 (ACHN): > 100 µM (inactive)
- GI50 (IGROV-1): 93.5 µM (inactive)
- GI50 (NCI-H522): 36.1 µM (inactive)
- GI50 (T47D): > 100 µM (inactive)
- GI50 (SF-268): > 100 µM (inactive)
- GI50 (MDA-MB-231): > 100 µM (inactive)
- GI50 (RPMI-8226): 83 µM (inactive)
- GI50 (SNB-75): > 100 µM (inactive)
- GI50 (NCI-H460): > 100 µM (inactive)
- GI50 (UO-31): > 100 µM (inactive)
- GI50 (A549): > 100 µM (inactive)
- GI50 (SK-MEL-5): > 100 µM (inactive)
- GI50 (SR): 58.7 µM (inactive)
- GI50 (NCI/ADR-RES): > 100 µM (inactive)
- GI50 (UACC-257): > 100 µM (inactive)
- GI50 (EKVX): > 100 µM (inactive)
- GI50 (SNB-19): > 100 µM (inactive)
- GI50 (PC-3): 54 µM (inactive)
- GI50 (SN12C): > 100 µM (inactive)
- GI50 (CAKI-1): > 100 µM (inactive)
- GI50 (SW-620): > 100 µM (inactive)
- GI50 (Hs-578T): > 100 µM (inactive)
- GI50 (RXF 393): > 100 µM (inactive)
- GI50 (OVCAR-3): > 100 µM (inactive)
- GI50 (NCI-H226): > 100 µM (inactive)
- GI50 (K562): > 100 µM (inactive)
- GI50 (MDA-N): 65.2 µM (inactive)
- GI50 (MOLT-4): 53.8 µM (inactive)
- GI50 (COLO 205): > 100 µM (inactive)
- GI50 (CCRF-CEM): 44.1 µM (inactive)
- GI50 (SF-295): > 100 µM (inactive)
- GI50 (MCF7): > 100 µM (inactive)
- GI50 (HOP-92): > 100 µM (inactive)
- GI50 (KM12): > 100 µM (inactive)
- GI50 (SK-MEL-28): > 100 µM (inactive)
- GI50 (M14): > 100 µM (inactive)
- GI50 (DU-145): > 100 µM (inactive)
- GI50 (HCC 2998): > 100 µM (inactive)
- GI50 (786-0): > 100 µM (inactive)
- GI50 (HCT-116): 98.6 µM (inactive)
- GI50 (BT-549): > 100 µM (inactive)
- GI50 (SK-MEL-2): 46.8 µM (inactive)
- GI50 (NCI-H23): > 100 µM (inactive)
- GI50 (OVCAR-4): > 100 µM (inactive)
- GI50 (UACC-62): 92.3 µM (inactive)
- GI50 (TK-10): > 100 µM (inactive)
- GI50 (OVCAR-5): > 100 µM (inactive)
- GI50 (SF-539): > 100 µM (inactive)
- GI50 (SK-OV-3): > 100 µM (inactive)
- GI50 (HL-60): > 100 µM (inactive)
- GI50 (HOP-62): 99.1 µM (inactive)
- GI50 (Malme-3M): > 100 µM (inactive)
- GI50 (LOX IMVI): > 100 µM (inactive)
- GI50 (HCT-15): > 100 µM
- GI50 (HT-29): > 100 µM (inactive)
